Results from paper PMC9738632 (Molecules, 2022).
Like-named read-outs stand apart in the source and are kept apart here.

How the values were obtained:
[1] = test system: DENV-3: SMLC50; assay: Plaque reduction neutralization test (PRNT), DENV-3; format: cell-based, Dengue virus; conditions: DENV-3, BHK-21 cells; for IC50: Dengue virus, DENV3, read-out: PRNT50 DENV-3 (concentration that reduces plaque number by 50%)
Excerpt: (§1) The dengue viruses used in this study were DENV-1:VN/2017/D7709, DENV-2: 00St22A, DENV-3: SMLC50, DENV-4: SLMC318. The virus strains were supplied by the Vietnam National Institute of Hygiene and Epidemiology. The four above serotypes of the Dengue virus were propagated in BHK-21 cell lines (provided by Nagasaki University, Japan) in Eagle’s Minimum Essential Medium (EMEM; Gibco Thermo Fischer Scientific, Waltham, MA, USA) with 2% Fetal Bovine Serum (FBS; Sigma Aldrich, St. Louis, MO, USA) at 37 °C under 5% CO2 atmosphere for 5–7 days. The BHK-21 cells were cultured using 10% FBS EMEM medium.
(§2) EMEM (1 mL) containing FBS (2%) was added into each of 24-well plates (with a concentration of […] –1.0 × 10^4 cells/well). The well plates were shaken to induce the formation of identical cell layers. Afterwards, the wells were incubated at 37 °C under 5% CO2 atmosphere overnight until the cell concentration reached at 70–90%. In case this concentration was not yet reached, the incubation was allowed to continue for a further 1 to 2 days.
(§3) The compounds 4–8 and 23 were totally dissolved in EMEM with a concentration of 500 μg/mL, which was serially diluted with step 2 with EMEM containing 2% FBS; the solutions of compounds were kept at 2–8 °C. The viruses were used at the dose of 2.5 × 10^3 PFU/mL in EMEM containing 2% FBS. The virus (100 μL) was added to all the diluted samples. The virus-compounds mixtures were incubated at 37 °C under 5% CO2 atmosphere for 60 min; afterwards, the medium in all wells of the plates was removed. The virus-compounds mixture (50 μL) was added into the wells, according to the designed experimental test concentration/dilution.
(§4) The viral medium was used as the negative control. EMEM (2 mL) containing methyl cellulose (1%) was added and re-incubated at 37 °C under 5% CO2 atmosphere for 4–6 days. The typical DENV-1 and DENV-4-induced CPE appeared after 4 days of incubation, while the durations for DENV-2 and DENV-3 were 5 and 6 days, respectively. These times of incubation allowed the formation of the plaques to be visually observable and countable. The plaques can be observed under a microscope or by eyes. The cells were fixed with formalin (3.7%) for 1 h at room temperature, washed with water, and stained with crystal violet (0.25%) for 1 h at room temperature. Finally, the plaques were counted.

[2] = test system: DENV-4: SLMC318; assay: Plaque reduction neutralization test (PRNT), DENV-4; format: cell-based, Dengue virus; conditions: DENV-4, BHK-21 cells; for IC50: Dengue virus, DENV4, read-out: PRNT50 DENV-4 (concentration that reduces plaque number by 50%)
Excerpt: as §1, §2, §3, §4

[3] = Cytotoxic assay (MTT) against BHK-21 cells; format: cell-based; conditions: hamster, read-out: CC50 (50% cytotoxic concentration)
Description: The cytotoxic evaluation of the extracts was carried out against the BHK-21 cells. Under cultural conditions of EMEM with FBS (10%), the assaying cells were grown in 96-well bottom-transparent plates at a density of 6 × 10^4 cells/mL per well. The compounds that had been dissolved in dimethyl sulfoxide (DMSO) with six different concentrations (500, 250, 125, 62.5, 31.25, 15.625 μg/mL) were added into each well; each concentration was used in triplicate. After incubation at 37 °C under 5% CO2 atmosphere for 48 h, MTT (0.5 mg/mL) was added into each well; afterwards, 4 h incubation was carried out. The liquid in the wells was removed, and DMSO ([…]) was added to each well. The optical absorbance was recorded on a microplate reader at λ = 570 nm (Genious Tecan, Grödig, […]). The optical density in the wells was plotted against the logarithm of compound concentration, and 50% cytotoxic concentration (CC50), the compound concentration decreasing the optical density twice comparing to control wells, was calculated using the appropriate software (Table Curve 2Dv4.USA).

[4] = test system: DENV-1:VN/2017/D7709; assay: Plaque reduction neutralization test (PRNT), DENV-1; format: cell-based, Dengue virus; conditions: DENV-1, BHK-21 cells; for IC50: Dengue virus, DENV1, read-out: PRNT50 DENV-1 (concentration that reduces plaque number by 50%)
Excerpt: as §1, §2, §3, §4

[5] = test system: DENV-2: 00St22A; assay: Plaque reduction neutralization test (PRNT), DENV-2; format: cell-based, Dengue virus; conditions: DENV-2, BHK-21 cells; for IC50: Dengue virus, DENV2, read-out: PRNT50 DENV-2 (concentration that reduces plaque number by 50%)
Excerpt: as §1, §2, §3, §4

[6] = test system: influenza virus A H7N1; conditions: cited from earlier work
[7] = Cytotoxicity assay (MTT) in MDCK cells; format: cell-based, Canine; conditions: dog, read-out: CC50 (50% cytotoxic concentration)
Description: Initially, maximum non-toxic concentrations were determined for compounds 1–22 to exclude their non-specific antiviral activity. The in vitro cytotoxicity of the tested compounds (CC50) was studied in the normal Madin-Darby Canine Kidney cell line (MDCK) by the MTT ((3-(4,5-dimethylthiazol-2-yl)-2,5-diphenyltetrazolium bromide) test. The highest concentration tested was […]. The cytotoxicity of oseltamivir carboxylate and rimantadine was also evaluated as these have been used as reference drugs in antiviral tests. Compounds at concentration that kills no more than 50% of cells (CC50) were used for further investigation of antiviral activity.
The MDCK cells were seeded onto 96-well culture plates (10^4 cells per well) and incubated at 36 °C in 5% CO2 until continuous monolayer formation. To assess the toxicity of the compounds, a series of their 3-fold dilutions, at concentrations of 300 to 3.7 μg/mL in Eagle’s Minimal Essential Medium (MEM), were prepared. The dilutions were added to the wells of the plates. The cells were incubated for 72 h at 36 °C in a CO2 incubator under 5% CO2. Further, a microtetrazolium (MTT) assay was performed on the 96-well plates. The cells were washed 2 times with saline (0.9% NaCl), and 100 μL/well of MTT solution [3-(4,5-dimethylthiazol-2-yl)-2,5-diphenyltetrazolium bromide] at a concentration of […] in MEM was added. The plates were incubated for 1 h at 36 °C, the liquid was removed, and dimethylsulfoxide (DMSO) (0.1 mL per well) was added. The optical density (OD) of the cells was measured on a Thermo Multiskan FC spectrophotometer (Thermo Fisher Scientific, Waltham, MA, USA) at a wavelength of 540 nm. Based on the obtained data, the CC50, the concentration of the compound that destroys 50% of the cells in the culture, was calculated for each specimen.

[8] = test system: influenza virus A/Puerto Rico/8/34 (H1N1); assay: organism not typed; format: cell-based; conditions: for IC50: read-out: IC50 (50% inhibitory concentration)
[9] = test system: Flu A H1N1 strain; parameters: method as in doi:10.1177/1934578X1801301008; conditions: read-out: IC50 against Flu A H1N1 strain; cited from earlier work
[10] = test system: influenza virus A/Puerto Rico/8/34 (H1N1); parameters: method as in earlier work; conditions: ref 40 (table), read-out: IC50 (50% inhibitory concentration); cited from earlier work
[11] = test system: MDCK cells; parameters: method as in earlier work; conditions: ref 40 (table), read-out: CC50 (50% cytotoxic concentration); cited from earlier work

| Compound | melting point [°C] | CC50 at 72 h [7] [µM] | SI (selectivity index, CC50/IC50) [8] | IC50 ([8]; MDCK, 72 h) [µM] | further results |
| --- | --- | --- | --- | --- | --- |
| CC1(C)CC[C@]2(CO)CC[C@]3(C)C(NCCC4[C@@]5(C)CC[C@H](O)C(C)(C)C5CC[C@]43C)C2C1 (stereo partly shown) [Compound 23, C-azepano-erythrodiol] |  |  |  |  | IC50 [1]: 228 ± 16 µM; IC50 [2]: 108 ± 5 µM; CC50 at 48 h [3]: > 544 µM; IC50 [4]: 107 ± 7 µM; IC50 [5]: 68 ± 3 µM |
| betulonic acid L-leucine-amide |  |  |  |  | suppression of the influenza virus A H7N1 [6]: 90%; EC50 ([6]; influenza virus A H7N1): 2.17 µM |
| CC1(C)CC[C@]2(C(=O)N3CCCNCC3)CC[C@]3(C)C(=CCC4[C@@]5(C)Cc6c([nH]c7ccccc67)C(C)(C)C5CC[C@]43C)C2C1 (stereo partly shown) [Compound 7, N-([3,2b]-Indolo-olean-12(13)-en-28-oyl)-homopiperazine Amide] | > 200 |  |  |  | IC50 [1]: > 410 µM; IC50 [2]: 371 ± 16 µM; CC50 at 48 h [3]: > 410 µM; IC50 [4]: 164 ± 11 µM; IC50 [5]: 105 ± 7 µM |
| CC1(C)CC[C@]2(C(=O)N3CCCNCC3)CC[C@]3(C)C(=CCC4[C@@]5(C)CCC(=O)C(C)(C)C5CC[C@]43C)C2C1 (stereo partly shown) [Compound 2, N-(3-Oxo-olean-12(13)-en-28-oyl)-homopiperazine Amide] | 174 | > 560 | >27 | 20 to 21 | IC50 [8]: 21 ± 3 µM |
| Lupane 3,4-seco-3,28-bis-methylpiperazine-amide |  |  |  |  | IC50 [9]: 27 µM |
| CC1(C)CC[C@]2(C(=O)NCCN3CCNCC3)CC[C@]3(C)C(=CCC4[C@@]5(C)CCC(=O)C(C)(C)C5CC[C@]43C)C2C1 (stereo partly shown) [Compound 6, N-(3-Oxo-olean-12(13)-en-28-oyl)-aminoethylpiperazine Amide] | 175 | 442 ± 31 | 5 | 82 ± 10 | IC50 [1]: > 111 µM; IC50 [2]: 110 ± 8 µM; CC50 at 48 h [3]: 111 ± 8 µM; IC50 [4]: 67 ± 4 µM; IC50 [5]: 86 ± 5 µM |
| COC(=O)[C@]12CCC(C)(C)CC1C1=CCC3[C@@]4(C)CC[C@H](N)C(C)(C)C4CC[C@@]3(C)[C@]1(C)CC2 (stereo partly drawn) [Compound 21, Methyl 3β-amino-oleanoate] |  |  |  |  | IC50 [10]: 7.9 µM; CC50 [11]: 18 µM |
| CCC(CC)O[C@@H]1C=C(C(=O)O)C[C@H](N)[C@H]1NC(C)=O [Oseltamivir carboxylate, reference compound] |  | > 200 | >667 | 0.3 ± 0.01 |  |
| CCOC(=O)CNC(=O)CN(Cc1ccccc1)C(=O)[C@]12CCC(C)(C)CC1C1=CCC3[C@@]4(C)CCC(=O)C(C)(C)C4CC[C@@]3(C)[C@]1(C)CC2 (stereo partly shown) [Compound 9, Ethyl N-Benzyl-N-3-oxo-olean-12-en-28-glycylglycinate] | 245 to 247 | > 437 | >11 | 41 ± 5 |  |
| CC1(C)CC[C@]2(C(=O)N3CCCN(CC#N)CC3)CC[C@]3(C)C(=CCC4[C@@]5(C)CCC(=O)C(C)(C)C5CC[C@]43C)C2C1 (stereo partly shown) [Compound 11, N-(3-Oxo-olean-12(13)-en-28-oyl)-4′-cyanomethyl-homopiperazine Amide] | 191 | > 522 | >12 | 45 ± 6 |  |
| CC(N)C12CC3CC(CC(C3)C1)C2 (stereo not shown) [Rimantadine, reference compound] |  | 344 ± 19 | 6 |  |  |
| CC1(C)CC[C@]2(C(=O)NCCCNCCCCNCCCN)CC[C@]3(C)C(=CCC4[C@@]5(C)Cc6c([nH]c7ccccc67)C(C)(C)C5CC[C@]43C)C2C1 (stereo partly shown) [Compound 8, N-([3,2b]-Indolo-olean-12(13)-en-28-oyl)-spermine Amide] | 138 | > 140 | >5 | 27 ± 4 | PRNT50 DENV-3 (concentration that reduces plaque number by 50%) [1]: inactive; IC50 [1]: > 351 µM; PRNT50 DENV-4 (concentration that reduces plaque number by 50%) [2]: inactive; IC50 [2]: 336 ± 28 µM; CC50 at 48 h [3]: > 351 µM; PRNT50 DENV-1 (concentration that reduces plaque number by 50%) [4]: inactive; IC50 [4]: 336 ± 22 µM; PRNT50 DENV-2 (concentration that reduces plaque number by 50%) [5]: inactive; IC50 [5]: 347 ± 21 µM |
| COC(=O)[C@]12CCC(C)(C)CC1C1=CCC3[C@@]4(C)CC[C@H](NC(=O)c5ccccc5C(=O)O)C(C)(C)C4CC[C@@]3(C)[C@]1(C)CC2 (stereo partly drawn) [Compound 22, Methyl 3β-N-phthalyl-olean-12(13)-en-28-oate] | 240 | > 486 | >42 | 12 ± 2 |  |
| CCOC(=O)CNC(=O)CN(Cc1ccccc1)C(=O)[C@]12CCC(C)(C)CC1C1=CCC3[C@@]4(C)Cc5c([nH]c6ccccc56)C(C)(C)C4CC[C@@]3(C)[C@]1(C)CC2 (stereo partly shown) [Compound 10, Ethyl N-Benzyl-N-2,3-indolo-olean-12-en-28-glycylglycinate] | 197 to 199 | 121 ± 9 | 3 | 39 ± 4 |  |
